# Data reported in patent publication US11661404B2, “Prodrug compounds activated by AKR1C3 and their use for treating hyperproliferative disorders” (priority 2018, dated 2023).
# Read-outs that look alike come from different tables or passages of the source.
# What was measured:
# [1] = test system: wild-type H460 lung cancer cells; assay: Anti-proliferative IC50 assay, wild-type H460; format: cell-based, human; settings: for IC50: Homo sapiens
# Description: Four hundred cells were seeded in a volume of 100 μL in each well of a 96-well plate. The cells were left in a humidified incubator (37° C., 5% CO2) for 2 hours in order to enable attachment to the surface of the wells prior to compound addition. All compounds were prepared as stocks in DMSO and stored at −80° C. Frozen stocks of compounds were thawed immediately prior to addition to cells. Working solutions of each compound were made in α-MEM+5% FBS (v/v) at 3 times the required final concentration for the top well. The final concentration of DMSO in the α-MEM solution was ensured to not exceed 1% of the total volume. 50 μL of the working solution was added to the top wells (in duplicates) and gently mixed. The solubility of some compounds precluded the working solution in α-MEM to be 3 times the desired top well concentration. […] A 3-fold serial dilution was carried out along the plate starting from the top well. The first column of wells on the plate served as blanks (containing α-MEM+FBS) and the second column served as control wells (containing cells with no compound added). Following compound addition, the plates were incubated for 4 hours in a humidified incubator (37° C., 5% CO2).
# Following the 4 hour compound exposure, the 96-well plates were washed three times by aspirating media with an Immuno Washer (Nunc) and each well replaced with 150 μL of α-MEM+5% (v/v) FBS+1% (v/v) P/S. The plates were left in a humidified incubator (37° C., 5% CO2) for 5 days to enable cell growth. The cells in 96-well plates were fixed 5 days after compound exposure by adding 50 μL of a 40% (w/v) trichloroacetic acid (TCA) solution so as to obtain a final TCA concentration of 10% in each well. The plates were left in the refrigerator (4° C.) for 1 hour and subsequently rinsed 3 times in tap water. Any excess water was left to drain and the cells were stained with 50 μL of 0.4% (w/v) sulforhodamine B (SRB). The plates with the SRB stain were left in the dark for 30 minutes. Excess stain was removed from the wells by rinsing the plates 4 times in water containing 1% (v/v) acetic acid. The stain was solubilised by adding 100 μL of 10 mM unbuffered Tris (pH 10.5) to each well and the plates were left in a shaker in a dark environment at room temperature for at least 1 hour. The absorbance values of the wells were determined by an ELx 808 Absorbance Microplate Reader (Bio-Tek Instruments, Winooski, Vt., USA), with the wavelength of the measurement filter set at 490 nm and a reference filter set at 450 nm. The absorbance of the reference filter was subtracted from the measurement filter to obtain a final absorbance of λ490-450 nm. The absorbance data was analysed and IC50 values determined by the KC4 microplate data analysis software (KC4™ V3.4, Bio-Tek).
# Anti-proliferative IC50 assays were repeated as described above including the addition of 3 μM SN34037, a selective and potent small molecule inhibitor of AKR1C3.
# Materials and methods used are as described for Example 9.
# recombinant human AKR1C3 = biological target: T1, recombinant human AKR1C3 (Homo sapiens, UniProt P42330); assay: Kinetics assay: metabolism of prodrugs by recombinant human AKR1C3; format: biochemical; settings: NADPH, pH 7.4, 37° C.
# T1 construct: His6 (hexahistidine) (C); made in house; host or cells: E. coli BL21(DE3)
# T1 sequence (P42330 1-323): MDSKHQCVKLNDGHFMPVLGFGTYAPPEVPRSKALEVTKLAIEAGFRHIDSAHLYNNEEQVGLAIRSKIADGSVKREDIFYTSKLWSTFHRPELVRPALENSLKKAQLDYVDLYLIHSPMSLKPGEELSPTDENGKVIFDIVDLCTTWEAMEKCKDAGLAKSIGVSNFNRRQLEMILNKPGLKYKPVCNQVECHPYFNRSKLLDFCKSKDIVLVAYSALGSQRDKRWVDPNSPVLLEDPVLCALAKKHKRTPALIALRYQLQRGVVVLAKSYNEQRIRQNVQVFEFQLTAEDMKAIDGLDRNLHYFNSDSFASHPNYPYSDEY
# Description: E. coli BL21(DE3) cells expressing the pET22b-AKR1C3 construct with a C-terminal hexahistidine (His6) tag and constitutive promoter was generated. Colonies of these transformed E. coli cells were grown in LB agar medium containing 100 μg/mL of ampicillin. A single colony was picked the following day and grown in 400 mL batches of bacterial medium containing ampicillin (100 μg/mL) at 37° C., with continuous shaking at 200 rpm overnight. Bacterial cultures were pelleted by centrifugation (4000×g, 15 minutes) and resuspended in lysis buffer (10 mL/400 mL culture). The cells were disrupted by sonication (Sonicator 3000, Misonix) and centrifuged at 14,000 rpm for 30 minutes (at 4° C.). The cleared lysate was filtered in successive filters containing pore sizes of 1.20 μm, 0.8 μm and 0.2 μm and loaded onto a nickel-agarose affinity chromatography column on an ÄKTA Purifier system. The column was washed with 20 mL of the lysis buffer and the His6-tagged AKR1C3 protein was eluted with lysis buffer supplemented with 500 mM imidazole. The protein was further purified by a liquid chromatography gel filtration column (Superdex 200 HR16/60) using lysis buffer (supplemented with 5% v/v glycerol) and 1 mM DTT (pH 7.0) at a flow rate of 0.3 mL/min. Protein was monitored by absorbance at 280 nm, and purity of the fractions (1 mL) was assessed by SDS-PAGE. Active fractions containing the purified protein were pooled and concentrated by centrifugation (3,000×g, 4° C.) on a Vivaspin concentrator (MWCO 10,000 cutoff; GE Healthcare). The protein containing solution was supplemented with glycerol (to a final concentration of 15%, v/v) and NADP^+ was added to a final concentration of 2 mM.
# Kinetic parameters of compounds of the invention were determined in a 96-well plate format. The 100 mM potassium phosphate buffer used in this assay was made with the following reagents to a pH of 7.4: • 0.5 M K2HPO4— 8.2 mL • 0.5 M KH2PO4— 1.8 mL • BSApowder—25 mg • Milli Q water—40 mL
# For the assay, 2 μL of varying substrate concentrations were incubated with 94 μL of the potassium phosphate buffer and 2 μL of 5 mM NADPH for 5 minutes in the pre-warmed (37° C.) plate chamber of a Molecular Devices SpectraMax M2 plate reader. Purified AKR1C3 enzyme (2 μL) was added to a final concentration of […] in each well using an Eppendorf electronic multi-channel pipette. Absorbance measurements were recorded immediately upon addition of enzyme over a period of 5 minutes at a wavelength of 400 nm. Absorbance changes for each compound concentration were plotted against time to obtain the rate of absorbance change over the 5 minute period. The rate of absorbance change was then plotted against the compound concentration and non-linear regression analysis and Michaelis-Menten curve fitting performed on GraphPadPrism (version 5.00 for Windows, GraphPad Software, San Diego Calif. USA) in order to determine kinetic parameters of compounds.
# [2] = NCI-H460, read-out: H460-WT +AKR1C3 Inhibitor Anti-proliferative IC50
# [3] = NCI-H460, read-out: H460-WT Anti-proliferative IC50
SMILES,"IC50 [1, 2] [µM]","IC50 [1, 3] [µM]",kcat (recombinant human AKR1C3) [s⁻¹],Km (recombinant human AKR1C3) [µM],more cytotoxic in H460 cells than SN34454 [1] [fold],more cytotoxic in H460 cells than SN33540 [1] [fold],more cytotoxic in H460 cells than SN34118 [1] [fold]
"CN1CCN(C(=O)c2cc([N+](=O)[O-])ccc2N(CCBr)CCOS(C)(=O)=O)CC1 [SN34454, reference compound]",46,0.406,5.2,–,–,–,–
"O=[N+]([O-])c1ccc(N(CCBr)CCBr)c(S(=O)(=O)N2CCN(CC(O)CO)CC2)c1 (stereo not shown) [Compound 566, 3-(4-((2-(bis(2-bromoethyl)amino)-5-nitrophenyl)sulfonyl)piperazin-1-yl)propane-1,2-diol]",4.03,0.004,67.1,32.2,–,–,–
"CS(=O)(=O)OCCN(CCBr)c1c(C(=O)NCCO)cc([N+](=O)[O-])cc1[N+](=O)[O-] [PR-104A, 2-((2-bromoethyl)(2-((2-hydroxyethyl)-carbamoyl)-4,6-dinitrophenyl)amino)ethyl methanesulfonate, reference compound]",50,2.7,18.7,72.9,–,–,–
"CN1CCN(S(=O)(=O)c2cc([N+](=O)[O-])ccc2N(CCBr)CCOS(C)(=O)=O)CC1 [Compound 602, 2-((2-bromoethyl)(2-((4-methylpiperazin-1-yl)sulfonyl)-4-nitrophenyl)amino)ethyl methanesulfonate]",4.19,0.004,–,33.1,102,–,–
"CN1CCN(C(=O)c2cc([N+](=O)[O-])ccc2N(CCBr)CCBr)CC1 [SN34118, reference compound]",28.9,1.56,18.7,9,–,–,–
"CS(=O)(=O)OCCN(CCBr)c1ccc([N+](=O)[O-])cc1S(=O)(=O)N1CCN(CC(O)CO)CC1 (stereo not shown) [Compound 605, 2-((2-bromoethyl)(2-((4-(2,3-dihydroxypropyl)piperazin-1-yl)sulfonyl)-4-nitrophenyl)amino)ethyl methanesulfonate]",7.8,0.025,–,17.1,–,–,–
"CN1CCN(S(=O)(=O)c2cc([N+](=O)[O-])ccc2N(CCOS(C)(=O)=O)CCOS(C)(=O)=O)CC1 [Compound 641, ((2-((4-methylpiperazin-1-yl)sulfonyl)-4-nitrophenyl)azanediyl)bis(ethane-2,1-diyl) dimethanesulfonate]",5.86,0.003,–,21.5,135,179,520
